Reference: the SangsterLogP compilation

SMILES | logP
O=C1CC(Oc2ccc(C(=O)c3ccccc3)cc2)N1 (stereo unspecified) | 2.14
O=C1CC(Oc2ccc([N+](=O)[O-])cc2)N1 (stereo unspecified) | 1.85
O=C1CC(Oc2ccccc2)N1 (stereo unspecified) | 1.94
O=C1CC(Oc2ccc3ccccc3c2)N1 (stereo unspecified) | 2.29
CCOC(=O)CN1C(=O)CC1Oc1ccc2ccccc2c1 (stereo unspecified) | 2.8
O=C1CC(Sc2ccccn2)N1 (stereo unspecified) | 1.81
O=C1CC(Oc2cccc3ccccc23)N1 (stereo unspecified) | 2.66
O=C1CC(Oc2cccc(C(=O)OCc3ccccc3)c2)N1 (stereo unspecified) | 2.83
O=C1CC(Oc2ccc(C(=O)/C=C/c3ccccc3)cc2)N1 (stereo unspecified) | 2.56
O=C1CC(Oc2c3ccccc3cc3ccccc23)N1 (stereo unspecified) | 3.08
O=C1CC(Sc2ccc3ccccc3c2)N1 (stereo unspecified) | 2.64
O=C1C[C@@H](Sc2ccccc2)N1 | 1.91
CC(C)(C)OC(=O)CN1C(=O)CC1Oc1ccc2ccccc2c1 (stereo unspecified) | 3.6
O=C1CC(Oc2ccc(C(=O)CCc3ccccc3)cc2)N1 (stereo unspecified) | 2.48
O=C1CC(Oc2ccccc2C(=O)c2ccccc2)N1 (stereo unspecified) | 1.83
CCOC(=O)CN1C(=O)CC1Oc1ccc(C(=O)C=Cc2ccccc2)cc1 (stereo unspecified) | 3.3
O=C1CC(Oc2ccc(-c3ccccc3)cc2)N1 (stereo unspecified) | 2.61
O=C1CC(Sc2ccc(Cl)cc2)N1 (stereo unspecified) | 2.31
CCOC(=O)CN1C(=O)CC1Sc1ccc2ccccc2c1 (stereo unspecified) | 3.4
O=C1CC(Sc2ccccc2C(=O)OCc2ccccc2)N1 (stereo unspecified) | 2.62
CCOC(=O)CN1C(=O)CC1Oc1ccc(C(=O)c2ccccc2)cc1 (stereo unspecified) | 3
